Measurements taken from US10399933B2, “Inhibitors of indoleamine-2,3-dioxygenase for the treatment of cancer” (BRISTOL-MYERS SQUIBB COMPANY, priority 2015, dated 2019).

The molecules below were run against human IDO1 (Homo sapiens, UniProt P14902) (assay: Human IDO-1 inhibitory activity in Hela cells (interferon-gamma stimulated)). Settings: 18 hours, unstimulated wells = 100% inhibition.
Assay type: cell-based
Set-up: endogenous in cells; host or cells: HeLa cells stimulated with interferon-gamma
Procedure: HeLa cells were seeded at 20,000 cells per 30 μL per well with RPMI/phenol red free media containing 10% FBS in a 384-well tissue culture plate (black with clear bottoms). 50 nL of compound was added to cells and incubated at 37° C. for one hour. 20 μL of the recombinant human Interferon-gamma (R&D System, Cat. #285-IF, at final concentration of 10 ng/ml) or recombinant murine Interferon-gamma (PEPROTECH® Inc., Cat. #315-05, final concentration of 5 ng/ml) was added to activate IDO signaling. The cells were incubated for 18 hours in 37° C. incubator with 5% CO2.
Compound treatment was stopped by adding 5 μl trichloroacetic acid to a final concentration of 3%. Subsequently, the cell plate was further incubated at 50° C. for 30 minute. An equal volume supernatant (20 μL) and 2% (w/v) Ehrlich reagent (4-dimethylaminobenzaldehyde) in glacial acetic acid were mixed in a new clear bottom 384-well plate. This plate was incubated at room temperature for 30 minutes. Absorbance at 490 nm was measured on Envision plate reader.
Compound IC50 values were calculated using counts from unstimulated (no INF-gamma treatment) wells as 100% inhibition. INF-gamma treatment without compound treatment as 0% inhibition.

human IDO1, sequence (P14902 whole entry): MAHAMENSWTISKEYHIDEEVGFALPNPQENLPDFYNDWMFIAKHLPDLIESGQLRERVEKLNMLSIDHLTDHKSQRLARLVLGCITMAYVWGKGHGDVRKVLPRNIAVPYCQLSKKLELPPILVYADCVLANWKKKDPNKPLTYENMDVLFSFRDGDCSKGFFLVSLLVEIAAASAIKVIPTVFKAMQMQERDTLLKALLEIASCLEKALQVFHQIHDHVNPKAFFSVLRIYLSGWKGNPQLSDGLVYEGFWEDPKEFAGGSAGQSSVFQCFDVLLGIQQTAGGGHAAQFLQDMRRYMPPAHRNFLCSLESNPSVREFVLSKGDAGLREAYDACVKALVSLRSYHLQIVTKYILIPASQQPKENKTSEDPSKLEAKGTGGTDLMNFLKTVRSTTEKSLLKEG

Row | IC50 [nM] | Molecule
1 | > 50 | CCOc1ncc(Nc2cc(C(COC)CC(=O)O)ccc2N(CC)C2CCS(=O)(=O)CC2)cn1 (single isomer, unassigned) [Example 175, 3-(4-((1,1-dioxidotetrahydro-2H-thiopyran-4-yl)(ethyl)amino)-3-((2-ethoxypyrimidin-5-yl)amino)phenyl)-4-methoxybutanoic acid]
2 | < 5 | CCN(c1ccc(C(COC)CC(=O)O)cc1Nc1ccc(C#N)cc1)C1CCCOC1 (single isomer, unassigned) [264 E2]
3 | < 5 | CCC(CC(=O)O)c1ccc(N(CCOC)C2CCOCC2)c(Nc2ccc(Cl)cc2)c1 (single isomer, unassigned) [Example 1257 E2, 3-(3-((4-Chlorophenyl)amino)-4-((2-methoxyethyl)(tetrahydro-2H-pyran-4-yl)amino)phenyl)pentanoic Acid]
4 | < 5 | (S)-3-(3-((4-chlorophenyl)amino)- 4-((1,1-dioxidotetrahydro-2H- thiopyran-4-yl)(ethyl)amino) phenyl)-4-isopropoxybutanoic acid [Example 325]
5 | > 50 | CCN(c1ccc([C@H](COC)CC(=O)O)cc1Nc1ccccc1C#N)C1CCOCC1 (single isomer, unassigned) [Example 406]
6 | > 50 | COCC(CC(=O)O)c1ccc(N2CCOC(C)(C)C2)c(NC(=O)Nc2ccc(Cl)cc2F)c1 (single isomer, unassigned) [Example 1318 E2, 3-(3-(3-(4-Chloro-2-fluorophenyl)ureido)-4-(2,2-dimethylmorpholino)phenyl)-4-methoxybutanoic Acid]
7 | < 50 | CCN(c1ccc([C@H](COC)CC(=O)O)cc1Nc1ccc(Cl)cn1)C1CCOCC1 (single isomer, unassigned) [Example 393]
8 | < 50 | CCN(c1ccc([C@H](COC)CC(=O)O)cc1Nc1ccc(C#N)c(OCC(F)F)c1)C1CCOCC1 (single isomer, unassigned) [Example 408]
9 | > 50 | COCC(CC(=O)O)c1ccc(N2CCOC(C)C2)c(Nc2ccc(Cl)cc2)c1 (single isomer, unassigned) [Example 1311 D1, 3-(3-((4-Chlorophenyl)amino)-4-(2-methylmorpholino)phenyl)-4-methoxybutanoic Acid]
10 | > 50 | (R)-3-(4-(ethyl(tetrahydro-2H- pyran-4-yl)amino)-3-((2- (tetrahydro-2H-pyran-4- yl)pyrimidin-5-yl)amino) phenyl)-4-methoxybutanoic acid [Example 403]
11 | > 50 | CCN(c1ccc([C@H](COC)CC(=O)O)cc1Nc1ccc(S(=O)(=O)CC)cc1)C1CCOCC1 (single isomer, unassigned) [Example 421]
12 | < 50 | CCN(c1ccc([C@H](COC)CC(=O)O)cc1Nc1ccc(C#N)c(OC)c1)C1CCOCC1 (single isomer, unassigned) [Example 417]
13 | < 50 | CCN(c1ccc([C@H](COC)CC(=O)O)cc1Nc1ccc(F)cn1)C1CCOCC1 (single isomer, unassigned) [Example 400]
14 | < 5 | CCN(c1ccc(C(COC)CC(=O)O)cc1Nc1ccc(C#N)cc1)C1CCCOC1 (single isomer, unassigned) [265 E1]
15 | < 5 | (R)-3-(3-((4-chlorophenyl)amino)- 4-((1,1-dioxidotetrahydro-2H- thiopyran-4-yl)(ethyl)amino) phenyl)-4-isopropoxybutanoic acid [Example 330]
16 | < 5 | CCN(c1ccc(C(COC)CC(=O)O)cc1Nc1ccc(C#N)cc1)C1CCCOC1 (single isomer, unassigned) [265 E2]
17 | < 50 | CCN(c1ccc([C@H](COC)CC(=O)O)cc1Nc1ncc(Cl)cn1)C1CCOCC1 (single isomer, unassigned) [Example 394]
18 | > 50 | CCN(c1ccc(C(COC)CC(=O)O)cc1Nc1cnc(OC)nc1)C1CCS(=O)(=O)CC1 (single isomer, unassigned) [Example 168 Enantiomer 2, 3-(4-((1,1-Dioxidotetrahydro-2H-thiopyran-4-yl)(ethyl)amino)-3-((2-methoxypyrimidin-5-yl)amino)phenyl)-4-methoxybutanoic Acid]
19 | > 50 | COC[C@H](CC(=O)O)c1ccc(N2CCOc3ccccc32)c(Nc2ccc(C#N)cc2)c1 (single isomer, unassigned) [Example 1359]

Row | IC50 [nM] | Molecule
20 | > 50 | COCC(CC(=O)O)c1ccc(N2CCOC(C)(C)C2)c(Nc2ccc(Cl)cc2)c1 (single isomer, unassigned) [Example 1315 E2, 3-(3-((4-Chlorophenyl)amino)-4-(2,2-dimethylmorpholino)phenyl)-4-methoxybutanoic Acid]
21 | > 50 | CCC(CC(=O)O)c1ccc(N(CCOC)C2CCOCC2)c(NC(=O)Nc2ccc(C)cc2)c1 (single isomer, unassigned) [Example 1264 E2, 3-(4-((2-Methoxyethyl)(tetrahydro-2H-pyran-4-yl)amino)-3-(3-(p-tolyl)ureido)phenyl)pentanoic Acid]
22 | < 50 | (S)-3-(3-((4-cyano-3- ethoxyphenyl)amino)-4- (ethyl(tetrahydro-2H-pyran- 4-yl)amino)phenyl)-4- methoxybutanoic acid [Example 380]
23 | > 50 | CCN(c1ccc(C(COC)CC(=O)O)cc1Nc1cnc(OC)nc1)C1CCS(=O)(=O)CC1 (single isomer, unassigned) [Example 168 Enantiomer 1, 3-(4-((1,1-Dioxidotetrahydro-2H-thiopyran-4-yl)(ethyl)amino)-3-((2-methoxypyrimidin-5-yl)amino)phenyl)-4-methoxybutanoic Acid]
24 | > 50 | CCN(c1ccc([C@H](COC)CC(=O)O)cc1Nc1ccc(C#N)c(C)n1)C1CCOCC1 (single isomer, unassigned) [Example 419]
25 | < 50 | CCN(c1ccc([C@H](COC)CC(=O)O)cc1Nc1ccc(C#N)cn1)C1CCOCC1 (single isomer, unassigned) [Example 389]
26 | < 50 | (S)-3-(4-((1,1-dioxidotetrahydro- 2H-thiopyran-4-yl)(ethyl)amino)- 3-((4-fluorophenyl)amino)phenyl)- 4-isopropoxybutanoic acid [Example 326]
27 | < 50 | CCN(c1ccc([C@H](COC)CC(=O)O)cc1Nc1ccc(C#N)c(OCC(F)(F)F)c1)C1CCOCC1 (single isomer, unassigned) [Example 409]
28 | > 50 | 3-(4-((1,1-dioxidotetrahydro-2H- thiopyran-4-yl)(ethyl)amino)-3- ((4-fluorophenyl)amino)phenyl)-4- isopropoxybutanoic acid [Example 345]
29 | > 50 | CCN(c1ccc(C(CC(=O)O)C2CC2)cc1NC(=O)Nc1ccc(C#N)cc1)C1CCS(=O)(=O)CC1 (single isomer, unassigned) [Example 348 E2, 3-(3-(3-(4-Cyanophenyl)ureido)-4-((1,1-dioxidotetrahydro-2H-thiopyran-4-yl)(ethyl)amino)phenyl)-3-cyclopropylpropanoic Acid]
30 | > 50 | CCN(c1ccc([C@H](COC)CC(=O)O)cc1Nc1ncc(F)cn1)C1CCOCC1 (single isomer, unassigned) [Example 396]
31 | > 50 | CCN(c1ccc(C(CC(=O)O)C2CC2)cc1NC(=O)Nc1ccc(C#N)cc1)C1CCS(=O)(=O)CC1 (single isomer, unassigned) [Example 348 E1, 3-(3-(3-(4-Cyanophenyl)ureido)-4-((1,1-dioxidotetrahydro-2H-thiopyran-4-yl)(ethyl)amino)phenyl)-3-cyclopropylpropanoic Acid]
32 | < 50 | (R)-3-(4-((1,1-dioxidotetrahydro- 2H-thiopyran-4-yl)(ethyl)amino)- 3-((4-fluorophenyl)amino)phenyl)- 4-isopropoxybutanoic acid [Example 331]
33 | < 5 | CCN(c1cc(F)c(C(COC)CC(=O)O)cc1Nc1ccc(C#N)c(F)c1)C1CCOCC1 (single isomer, unassigned) [Example 853, 3-(5-((4-cyano-3-fluorophenyl)amino)-4-(ethyl(tetrahydro-2H-pyran-4-yl)amino)-2-fluorophenyl)-4-methoxybutanoic acid]
34 | > 50 | CC(CC(=O)O)c1ccc(N2C[C@@H](C)O[C@@H](C)C2)c(NC(=O)Nc2ccc(Cl)cc2F)c1 (single isomer, unassigned) [Example 749 Enantiomer 2]
35 | < 50 | (R)-3-(3-((4-cyano-3- methylphenyl)amino)-4- (ethyl(tetrahydro-2H-pyran-4- yl)amino)phenyl)-4- methoxybutanoic acid [Example 391]
36 | > 50 | COC[C@@H](CC(=O)O)c1ccc(N2CCOc3ccccc32)c(Nc2ccc(C#N)cc2)c1 (single isomer, unassigned) [Example 1358]
37 | < 5 | CCN(c1ccc([C@H](COC)CC(=O)O)cc1Nc1ccc(F)cc1)C1CCOCC1 (single isomer, unassigned) [Example 412]

Row | Molecule | IC50 [nM]
38 | CCN(c1ccc([C@H](COC)CC(=O)O)cc1Nc1ccc(C#N)c(C(F)(F)F)c1)C1CCOCC1 (single isomer, unassigned) [Example 420] | > 50
39 | CCN(c1ccc([C@H](COC)CC(=O)O)cc1Nc1ccc(C#N)c(Cl)c1)C1CCOCC1 (single isomer, unassigned) [Example 418] | < 50
